Reference: EP4603105A1, “PHARMACEUTICAL COMPOSITION CONTAINING CYCLIC COMPOUND HAVING SELECTIVE KRAS INHIBITORY EFFECT AGAINST HRAS AND NRAS” (CHUGAI SEIYAKU KABUSHIKI KAISHA, priority 2022, dated 2024)

What was measured:
[1] = biological target: GDP-bound NRAS wild-type protein (Homo sapiens, UniProt P01111); test: Binding to NRAS by surface plasmon resonance (SPR), KD and KD ratio to KRAS; settings: ratio of KD for GDP-bound NRAS wild-type protein to KD for KRAS
How it was run: (§1)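 GDP-loaded biotinylated Avi-tag RAS proteins (E. coli-expressed) captured on a Biotin CAPture chip at ~100–300 RU; single-cycle kinetics at 30°C, 100 µL/min, 75 s injections of rising compound concentrations. HBS pH 7.4 running buffer with 1 mM DTT, 10 mM MgCl2, 10 µM GDP, 4% DMSO. KD from 1:1 binding fit.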

[2] = biological target: GDP-bound KRAS wild-type protein (Homo sapiens, UniProt P01116); test: Binding to KRAS by surface plasmon resonance (SPR), dissociation constant KD; settings: 1:1 binding model
Sequence of GDP-bound KRAS wild-type protein (P01116 1-188 isoform P01116-2): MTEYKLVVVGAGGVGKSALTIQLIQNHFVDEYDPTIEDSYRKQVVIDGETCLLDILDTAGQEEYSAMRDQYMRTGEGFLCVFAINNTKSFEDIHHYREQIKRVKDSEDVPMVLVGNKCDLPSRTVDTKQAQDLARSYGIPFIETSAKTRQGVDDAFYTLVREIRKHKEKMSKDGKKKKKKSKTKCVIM
How it was run: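 Biotinylated GDP-bound RAS was captured at about 100–300 RU. Running buffer: HBS pH 7.4, 10 mM MgCl2, 10 µM GDP, 1 mM DTT, 0.01% Tween 20, 4% DMSO.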

[3] = tested on: human lung cancer strain NCI-H441; type: cell-based
How it was run: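 Readout: […] after the ATP-based reagent. Compound: serial dilutions in dimethyl sulfoxide.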

HRAS wild-type protein = HRAS wild-type protein (Homo sapiens, UniProt P01112); test: Binding to HRAS by surface plasmon resonance (SPR), KD and KD ratio to KRAS; settings: ratio of KD for HRAS wild-type protein to KD for KRAS
Sequence of HRAS wild-type protein (P01112 whole entry): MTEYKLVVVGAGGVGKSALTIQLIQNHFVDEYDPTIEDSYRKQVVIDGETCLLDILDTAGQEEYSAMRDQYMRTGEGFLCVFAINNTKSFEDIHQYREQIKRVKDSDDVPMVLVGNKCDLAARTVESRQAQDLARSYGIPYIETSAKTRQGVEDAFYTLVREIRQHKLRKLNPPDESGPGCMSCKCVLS
How it was run: as §1

Sequence of GDP-bound NRAS wild-type protein (P01111 whole entry): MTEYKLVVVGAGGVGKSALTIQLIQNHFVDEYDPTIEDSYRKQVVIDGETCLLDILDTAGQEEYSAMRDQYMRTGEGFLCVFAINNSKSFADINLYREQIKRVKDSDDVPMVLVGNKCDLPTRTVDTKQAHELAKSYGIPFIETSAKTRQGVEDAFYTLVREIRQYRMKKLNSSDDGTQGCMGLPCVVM

Structure (SMILES) | Kd [2] [nM] | IC50 [3] [nM] | NRAS /KRAS [1] | HRAS /KRAS (HRAS wild-type protein)
CCC[C@H]1C(=O)N[C@@H]([C@@H](C)CC)C(=O)N(C)CC(=O)N(C)[C@H]2C/C=C\CCN(C2=O)[C@@H](Cc2ccc(C)cc2)C(=O)N(C)CC(=O)N[C@@H](CCc2cc(Cl)c3c(ccn3C)c2)C(=O)N2C[C@H](OCC)C[C@H]2C(=O)NC2(CC(C)(C)C2)C(=O)N(C)[C@@H](C2CCCC2)C(=O)N(C)[C@H](C(=O)N(C)C)CC(=O)N1C [PP2951] | 1 | 37 | A (a compound having 10 or more and less than 20 is denoted as A) | A (a compound having 10 or more and less than 20 is denoted as A)
CCC(CC)[C@H]1C(=O)N(C)[C@H](C(=O)N(C)C)CC(=O)N(C)[C@@H](COC)C(=O)N[C@@H]([C@@H](C)CC)C(=O)N(C)CC(=O)N(C)[C@H]2C/C=C\CCN(C2=O)[C@@H](Cc2ccc(C)cc2)C(=O)N(C)CC(=O)N[C@@H](CCc2ccc(C(F)(F)F)c(Cl)c2)C(=O)N2CCCCC[C@H]2C(=O)NC2(CC(C)(C)C2)C(=O)N1C [PP2966] | 0.57 | 29.3 | A (a compound having 10 or more and less than 20 is denoted as A) | A (a compound having 10 or more and less than 20 is denoted as A)
CCC(CC)[C@H]1C(=O)N(C)[C@H](C(=O)N(C)C)CC(=O)N(C)[C@@H](COC)C(=O)N[C@@H]([C@@H](C)CC)C(=O)N(C)CC(=O)N(C)[C@H]2C/C=C\CCN(C2=O)[C@@H](Cc2ccc(C)cc2)C(=O)N(C)CC(=O)N[C@@H](CCc2ccc(C(F)(F)F)c(OC)c2)C(=O)N2CCCCC[C@H]2C(=O)NC2(CC(C)(C)C2)C(=O)N1C [PP2970] | 0.46 | 23 | A (a compound having 10 or more and less than 20 is denoted as A) | A (a compound having 10 or more and less than 20 is denoted as A)
CCC(CC)[C@H]1C(=O)N(C)[C@H](C(=O)N(C)C)CC(=O)N(C)[C@@H](COC)C(=O)N[C@@H]([C@@H](C)CC)C(=O)N(C)CC(=O)N(C)[C@H]2C/C=C\CCN(C2=O)[C@@H](Cc2ccc(C)cc2)C(=O)N(C)CC(=O)N[C@@H](CCc2ccc(Cl)c(Cl)c2)C(=O)N2CCCCC[C@H]2C(=O)NC2(CC(C)(C)C2)C(=O)N1C [PP2974] | 1.3 | 38.6 | A (a compound having 10 or more and less than 20 is denoted as A) | A (a compound having 10 or more and less than 20 is denoted as A)
CCC[C@H]1C(=O)N[C@@H]([C@@H](C)CC)C(=O)N(C)CC(=O)N(C)[C@H]2C/C=C\CCN(C2=O)[C@@H](Cc2ccc(C(F)(F)F)cc2)C(=O)N(C)CC(=O)N[C@@H](CCc2ccc(C(F)(F)F)c(Cl)c2)C(=O)N2CC3(CC3)C[C@H]2C(=O)NC2(CC(C)(C)C2)C(=O)N(C)[C@@H](CC(F)(F)F)C(=O)N(C)[C@H](C(=O)N(C)C)CC(=O)N1C [PP2985] | 1.4 | 46.5 | AA (a compound having 20 or more is denoted as AA) | A (a compound having 10 or more and less than 20 is denoted as A)
CCC[C@H]1C(=O)N[C@@H](C2CCOCC2)C(=O)N(C)CC(=O)N(C)[C@H]2C/C=C\CCN(C2=O)[C@@H](Cc2ccc(C)cc2)C(=O)N(C)CC(=O)N[C@@H](CCc2ccc(C(F)(F)F)c(Cl)c2)C(=O)N2C[C@H](OCC)C[C@H]2C(=O)NC2(CC(C)(C)C2)C(=O)N(C)[C@@H](C2CCCC2)C(=O)N(C)[C@H](C(=O)N(C)C)CC(=O)N1C [PP3002] | 2.1 | 128 | A (a compound having 10 or more and less than 20 is denoted as A) | A (a compound having 10 or more and less than 20 is denoted as A)
CCC[C@H]1C(=O)N[C@@H]([C@@H](C)CC)C(=O)N(C)CC(=O)N(C)[C@H]2C/C=C\CCN(C2=O)[C@@H](Cc2ccc(C)cc2)C(=O)N(C)CC(=O)N[C@@H](CCc2ccc(C(F)(F)F)c(OC)c2)C(=O)N2C[C@H](OCC)C[C@H]2C(=O)NC2(CC(C)(C)C2)C(=O)N(C)[C@@H](CC(F)(F)F)C(=O)N(C)[C@H](C(=O)N(C)C)CC(=O)N1C [PP3007] | 1.3 | 63.4 | A (a compound having 10 or more and less than 20 is denoted as A) | A (a compound having 10 or more and less than 20 is denoted as A)

Stronger by Kd [2], values ahead:

Kd [2] [nM] | IC50 [3] [nM] | Structure (SMILES) | NRAS /KRAS [1] | HRAS /KRAS (HRAS wild-type protein)
0.32 | 8.9 | CCC(CC)[C@H]1C(=O)N(C)[C@H](C(=O)N(C)C)CC(=O)N(C)[C@@H](COC)C(=O)N[C@@H]([C@@H](C)CC)C(=O)N(C)CC(=O)N(C)[C@H]2C/C=C\CCN(C2=O)[C@@H](Cc2ccc(C)cc2)C(=O)N(C)CC(=O)N[C@@H](CCc2cc(F)c(C(F)(F)F)c(F)c2)C(=O)N2CCCCC[C@H]2C(=O)NC2(CC(C)(C)C2)C(=O)N1C [PP2960] | A (a compound having 10 or more and less than 20 is denoted as A) | A (a compound having 10 or more and less than 20 is denoted as A)
0.11 | 5.9 | C#CC[C@H]1C(=O)N[C@@H]([C@@H](C)CC)C(=O)N(C)CC(=O)N(C)[C@H]2C/C=C\CCN(C2=O)[C@@H](Cc2ccc(C)cc2)C(=O)N(C)CC(=O)N[C@@H](CCc2cc(F)c(C(F)(F)F)c(F)c2)C(=O)N2CC3(CC3)C[C@H]2C(=O)NC2(CC(C)(C)C2)C(=O)N(C)[C@@H](C2CCCC2)C(=O)N(C)[C@H](C(=O)N(C)C)CC(=O)N1C [PP2978] | A (a compound having 10 or more and less than 20 is denoted as A) | A (a compound having 10 or more and less than 20 is denoted as A)
0.29 | 8.1 | CCC[C@H]1C(=O)N[C@@H](C2CCCC2)C(=O)N(C)CC(=O)N(C)[C@H]2C/C=C\CCN(C2=O)[C@@H](Cc2ccc(C)cc2)C(=O)N(C)CC(=O)N[C@@H](CCc2cc(F)c(C(F)(F)F)c(F)c2)C(=O)N2C[C@H](OCC)C[C@H]2C(=O)NC2(CC(C)(C)C2)C(=O)N(C)[C@@H](C2CCCC2)C(=O)N(C)[C@H](C(=O)N(C)C)CC(=O)N1C [PP2988] | B (a compound having 3 or more and less than 10 is denoted as B) | B (a compound having 3 or more and less than 10 is denoted as B)
0.21 | 15.8 | CCC[C@H]1C(=O)N[C@@H](C2CCCC2)C(=O)N(C)CC(=O)N(C)[C@H]2C/C=C\CCN(C2=O)[C@@H](Cc2ccc(C)cc2)C(=O)N(C)CC(=O)N[C@@H](CCc2ccc(C(F)(F)F)c(OC)c2)C(=O)N2CC3(CC3)C[C@H]2C(=O)NC2(CC(C)(C)C2)C(=O)N(C)[C@@H](C2CCCC2)C(=O)N(C)[C@H](C(=O)N(C)C)CC(=O)N1C [PP2994] | AA (a compound having 20 or more is denoted as AA) | A (a compound having 10 or more and less than 20 is denoted as A)
0.32 | 12.9 | CCC[C@H]1C(=O)N[C@@H]([C@@H](C)CC)C(=O)N(C)CC(=O)N(C)[C@H]2C/C=C\CCN(C2=O)[C@@H](Cc2ccc(C)cc2)C(=O)N(C)CC(=O)N[C@@H](CCc2cc(F)c(C(F)(F)F)c(F)c2)C(=O)N2C[C@H](OCC)C[C@H]2C(=O)NC2(CC(C)(C)C2)C(=O)N(C)[C@@H](CC(C)C)C(=O)N(C)[C@H](C(=O)N(C)C)CC(=O)N1C [PP2995] | A (a compound having 10 or more and less than 20 is denoted as A) | A (a compound having 10 or more and less than 20 is denoted as A)
0.43 | 8.3 | CCC[C@H]1C(=O)N[C@@H](C2CCCCC2)C(=O)N(C)CC(=O)N(C)[C@H]2C/C=C\CCN(C2=O)[C@@H](Cc2ccc(C)cc2)C(=O)N(C)CC(=O)N[C@@H](CCc2ccc(C(F)(F)F)c(Cl)c2)C(=O)N2C[C@H](OCC)C[C@H]2C(=O)NC2(CC(C)(C)C2)C(=O)N(C)[C@@H](C2CCCC2)C(=O)N(C)[C@H](C(=O)N(C)C)CC(=O)N1C [PP2998] | A (a compound having 10 or more and less than 20 is denoted as A) | AA (a compound having 20 or more is denoted as AA)
0.15 | 8.8 | CCC[C@H]1C(=O)N[C@@H](C2CCCC2)C(=O)N(C)CC(=O)N(C)[C@H]2C/C=C\CCN(C2=O)[C@@H](Cc2ccc(C)cc2)C(=O)N(C)CC(=O)N[C@@H](CCc2ccc(C(F)(F)F)c(OC)c2)C(=O)N2C[C@H](OCC)C[C@H]2C(=O)NC2(CC(C)(C)C2)C(=O)N(C)[C@@H](CC(C)(C)C)C(=O)N(C)[C@H](C(=O)N(C)C)CC(=O)N1C [PP3005] | A (a compound having 10 or more and less than 20 is denoted as A) | B (a compound having 3 or more and less than 10 is denoted as B)
0.38 | 16 | CCC[C@H]1C(=O)N[C@@H]([C@@H](C)CC)C(=O)N(C)CC(=O)N(C)[C@H]2C/C=C\CCN(C2=O)[C@@H](Cc2ccc(C)cc2)C(=O)N(C)CC(=O)N[C@@H](CCc2ccc(C(F)(F)F)c(OC)c2)C(=O)N2C[C@H](OCC)C[C@H]2C(=O)NC2(CC(C)(C)C2)C(=O)N(C)[C@@H](CC(C)C)C(=O)N(C)[C@H](C(=O)N(C)C)CC(=O)N1C [PP3008] | A (a compound having 10 or more and less than 20 is denoted as A) | A (a compound having 10 or more and less than 20 is denoted as A)
